Laboratory results taken from PubChem BioAssay AID1845219 (Molecular Pharmacology Branch, DTP, NCI, 2023).
pIC50: −log10 of the molar value.

Tested on: SYO-1 tumor spheroids, viability % test/control
Assay: Anticancer human tumor SYO-1 cell line growth inhibition;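 also: spheroids exposed to agents for 7 days before viability read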;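 as to viability, T/C: 100% = DMSO vehicle control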
Conditions: spheroids with HUVEC and MSC; for pIC50: curve of first compound; for viability, T/C: stronger effect = lower value
Procedure, shortened: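 Complex tumor spheroids combined malignant cells with endothelial cells and mesenchymal stem cells. DNA-damaging drugs and DNA repair inhibitors were tested alone and in combination, at half-log dilutions down from clinical Cmax (top 10 microM if Cmax unknown), 0.25% DMSO final.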

[1] = second compound 1 µM, first compound 0.0316 µM
[2] = second compound 1 µM, first compound 0.1 µM
[3] = second compound 1 µM, first compound 0.316 µM
[4] = second compound 1 µM, first compound 1 µM
[5] = second compound 1 µM, first compound 3.16 µM
[6] = second compound 1 µM, first compound 10 µM
[7] = second compound 3.16 µM, first compound 0.0316 µM
[8] = second compound 3.16 µM, first compound 0.1 µM
[9] = second compound 3.16 µM, first compound 0.316 µM
[10] = second compound 3.16 µM, first compound 1 µM
[11] = second compound 3.16 µM, first compound 3.16 µM
[12] = second compound 3.16 µM, first compound 10 µM
[13] = second compound 10 µM, first compound 0.0316 µM
[14] = second compound 10 µM, first compound 0.1 µM
[15] = second compound 10 µM, first compound 0.316 µM
[16] = second compound 10 µM, first compound 1 µM
[17] = second compound 10 µM, first compound 3.16 µM
[18] = second compound 10 µM, first compound 10 µM
[19] = second compound 31.6 µM, first compound 0.0316 µM
[20] = second compound 31.6 µM, first compound 0.1 µM
[21] = second compound 31.6 µM, first compound 0.316 µM
[22] = second compound 31.6 µM, first compound 1 µM
[23] = second compound 31.6 µM, first compound 3.16 µM
[24] = second compound 31.6 µM, first compound 10 µM
[25] = second compound 100 µM, first compound 0.0316 µM
[26] = second compound 100 µM, first compound 0.1 µM
[27] = second compound 100 µM, first compound 0.316 µM
[28] = second compound 100 µM, first compound 1 µM
[29] = second compound 100 µM, first compound 3.16 µM
[30] = second compound 100 µM, first compound 10 µM

Row | SMILES | pIC50 (second compound 1 µM) | pIC50 (second compound 3.16 µM) | pIC50 (second compound 10 µM) | pIC50 (second compound 31.6 µM) | pIC50 (second compound 100 µM) | viability, T/C [1] [%] | viability, T/C [2] [%] | viability, T/C [3] [%] | viability, T/C [4] [%] | viability, T/C [5] [%] | viability, T/C [6] [%] | viability, T/C [7] [%] | viability, T/C [8] [%] | viability, T/C [9] [%] | viability, T/C [10] [%] | viability, T/C [11] [%] | viability, T/C [12] [%] | viability, T/C [13] [%] | viability, T/C [14] [%] | viability, T/C [15] [%] | other results
1 | CC(C)n1c(=O)n(C)c2cnc3cc(F)c(-c4ccc(OCCCN5CCCCC5)nc4)cc3c21 + Cn1nnc2c(C(N)=O)ncn2c1=O | < 5.00 | < 5.00 | 5.03 | 5.10 | < 5.00 | 100 | 101 | 103 | 103 | 101 | 59.1 | 105 | 104 | 106 | 104 | 103 | 52 | 105 | 100 | 103 | viability, T/C [16]: 108%; viability, T/C [17]: 102%; viability, T/C [18]: 46.3%; viability, T/C [19]: 106%; viability, T/C [20]: 113%; viability, T/C [21]: 106%; viability, T/C [22]: 115%; viability, T/C [23]: 104%; viability, T/C [24]: 35.8%; viability, T/C [25]: 108%; viability, T/C [26]: 112%; viability, T/C [27]: 106%; viability, T/C [28]: 96.2%; viability, T/C [29]: 103%; viability, T/C [30]: 73%
2 | CC1COCCN1c1cc(-c2ccnn2C)c2ccnc(-c3ccn[nH]3)c2n1 (stereo not given) + Cn1nnc2c(C(N)=O)ncn2c1=O | > 7.50 | > 7.50 | > 7.50 | > 7.50 | > 7.50 | 41.1 | 5.35 | 2.75 | 1.62 | 0.73 | 0.7 | 38.4 | 4.75 | 3.22 | 1.73 | 7.91 | 20 | 20.3 | 3.73 | 2.69 | viability, T/C [16]: 1.48%; viability, T/C [17]: 5.25%; viability, T/C [18]: 21.1%; viability, T/C [19]: 11.1%; viability, T/C [20]: 10.2%; viability, T/C [21]: 2.45%; viability, T/C [22]: 1.18%; viability, T/C [23]: 7.18%; viability, T/C [24]: 6.71%; viability, T/C [25]: 2.97%; viability, T/C [26]: 2.88%; viability, T/C [27]: 1.91%; viability, T/C [28]: 1.24%; viability, T/C [29]: 0.77%; viability, T/C [30]: 0.75%
3 | COc1ccc([C@@H](O)c2cc(-c3ncnc4cc(N5CCOCC5)ccc34)c(F)cc2Cl)nn1 + Cn1nnc2c(C(N)=O)ncn2c1=O | 5.31 | 5.34 | 5.31 | 5.39 | 5.71 | 107 | 112 | 112 | 107 | 77.3 | 7.18 | 101 | 106 | 108 | 105 | 68.3 | 11.9 | 108 | 108 | 110 | viability, T/C [16]: 107%; viability, T/C [17]: 74.6%; viability, T/C [18]: 10.7%; viability, T/C [19]: 116%; viability, T/C [20]: 110%; viability, T/C [21]: 111%; viability, T/C [22]: 109%; viability, T/C [23]: 59.4%; viability, T/C [24]: 18.4%; viability, T/C [25]: 113%; viability, T/C [26]: 116%; viability, T/C [27]: 107%; viability, T/C [28]: 80.2%; viability, T/C [29]: 29%; viability, T/C [30]: 2.71%
